Experimental data taken from paper PMC7658267, “Effects of CYP46A1 Inhibition on Long-Term-Depression in Hippocampal Slices ex vivo and 24S-Hydroxycholesterol Levels in Mice in vivo” (Frontiers in Molecular Neuroscience, 2020).
Like-named read-outs stand apart in the source and are kept apart here.

How the values were obtained:
[1] = molecular target: CYP1A2 (Homo sapiens, UniProt P05177); assay: biochemical; parameters: CYP off-target inhibition panel
[2] = molecular target: T1, CCK1 (Homo sapiens, UniProt P32238); assay: biochemical; parameters: CEREP radioligand binding panel, percent inhibition of specific binding
T1 construct: gene CCKAR

[3] = molecular target: T2, GAL2 (Homo sapiens, UniProt O43603); assay: biochemical; parameters: CEREP radioligand binding panel, percent inhibition of specific binding
T2 construct: gene GALR2
T2 sequence (O43603 whole entry): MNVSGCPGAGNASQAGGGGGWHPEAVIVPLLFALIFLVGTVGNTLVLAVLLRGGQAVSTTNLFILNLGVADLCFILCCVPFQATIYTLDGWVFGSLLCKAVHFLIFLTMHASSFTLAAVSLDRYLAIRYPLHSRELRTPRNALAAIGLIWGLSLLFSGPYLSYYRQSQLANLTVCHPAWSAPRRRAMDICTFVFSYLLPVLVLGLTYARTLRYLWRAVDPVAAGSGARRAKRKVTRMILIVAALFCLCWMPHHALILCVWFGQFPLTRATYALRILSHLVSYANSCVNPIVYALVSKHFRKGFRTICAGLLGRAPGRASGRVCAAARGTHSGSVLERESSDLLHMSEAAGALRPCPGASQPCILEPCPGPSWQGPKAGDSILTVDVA

[4] = molecular target: T3, MT1 (Homo sapiens, UniProt P48039); assay: biochemical; parameters: CEREP radioligand binding panel, percent inhibition of specific binding
T3 construct: gene MTNR1A
T3 sequence (P48039 whole entry): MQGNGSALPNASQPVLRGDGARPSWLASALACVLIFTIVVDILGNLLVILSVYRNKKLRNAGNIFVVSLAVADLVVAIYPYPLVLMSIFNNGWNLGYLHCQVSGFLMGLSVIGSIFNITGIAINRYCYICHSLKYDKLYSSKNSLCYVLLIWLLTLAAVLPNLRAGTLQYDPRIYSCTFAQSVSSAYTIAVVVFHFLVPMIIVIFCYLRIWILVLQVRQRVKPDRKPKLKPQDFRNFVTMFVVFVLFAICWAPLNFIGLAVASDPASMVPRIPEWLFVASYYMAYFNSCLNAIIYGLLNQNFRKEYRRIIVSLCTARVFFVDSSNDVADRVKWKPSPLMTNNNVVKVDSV

[5] = molecular target: Human AR (Homo sapiens, UniProt P10275); assay: biochemical; parameters: CEREP off-target binding panel, per cent inhibition at 10 uM, n = 2
[6] = molecular target: T4, Human D1 (Homo sapiens, UniProt P21728); assay: biochemical; parameters: CEREP off-target binding panel, per cent inhibition at 10 uM, n = 2
T4 construct: gene DRD1
T4 sequence (P21728 whole entry): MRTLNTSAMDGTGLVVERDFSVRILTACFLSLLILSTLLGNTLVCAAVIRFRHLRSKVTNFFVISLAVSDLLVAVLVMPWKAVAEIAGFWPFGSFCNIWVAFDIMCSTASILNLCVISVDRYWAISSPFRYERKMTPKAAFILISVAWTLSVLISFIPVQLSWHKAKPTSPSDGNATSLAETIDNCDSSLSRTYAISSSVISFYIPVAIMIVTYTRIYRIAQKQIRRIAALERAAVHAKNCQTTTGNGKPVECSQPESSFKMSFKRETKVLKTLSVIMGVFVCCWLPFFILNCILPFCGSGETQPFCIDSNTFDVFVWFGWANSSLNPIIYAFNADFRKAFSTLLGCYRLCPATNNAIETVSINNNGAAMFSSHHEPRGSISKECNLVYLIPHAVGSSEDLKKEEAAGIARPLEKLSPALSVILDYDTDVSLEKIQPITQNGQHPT

[7] = molecular target: T5, Human CB1 (Homo sapiens, UniProt P21554); assay: biochemical; parameters: CEREP off-target binding panel, per cent inhibition at 10 uM, n = 2
T5 construct: gene CNR1
T5 sequence (P21554 whole entry): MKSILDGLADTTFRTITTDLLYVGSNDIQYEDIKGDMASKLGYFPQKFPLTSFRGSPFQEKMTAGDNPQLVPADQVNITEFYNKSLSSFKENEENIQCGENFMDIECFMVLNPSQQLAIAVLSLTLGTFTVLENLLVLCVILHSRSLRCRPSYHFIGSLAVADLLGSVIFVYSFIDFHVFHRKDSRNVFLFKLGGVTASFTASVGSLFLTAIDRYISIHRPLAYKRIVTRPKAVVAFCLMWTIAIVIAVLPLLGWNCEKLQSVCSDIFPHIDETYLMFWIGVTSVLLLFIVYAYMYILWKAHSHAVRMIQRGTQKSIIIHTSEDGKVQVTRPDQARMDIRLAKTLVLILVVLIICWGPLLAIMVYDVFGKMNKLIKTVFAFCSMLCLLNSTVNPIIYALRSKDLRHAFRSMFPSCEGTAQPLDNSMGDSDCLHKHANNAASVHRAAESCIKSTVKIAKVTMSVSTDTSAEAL

[8] = molecular target: T6, Human EP4 (Homo sapiens, UniProt P35408); assay: biochemical; parameters: CEREP off-target binding panel, per cent inhibition at 10 uM, n = 2
T6 construct: gene PTGER4
T6 sequence (P35408 whole entry): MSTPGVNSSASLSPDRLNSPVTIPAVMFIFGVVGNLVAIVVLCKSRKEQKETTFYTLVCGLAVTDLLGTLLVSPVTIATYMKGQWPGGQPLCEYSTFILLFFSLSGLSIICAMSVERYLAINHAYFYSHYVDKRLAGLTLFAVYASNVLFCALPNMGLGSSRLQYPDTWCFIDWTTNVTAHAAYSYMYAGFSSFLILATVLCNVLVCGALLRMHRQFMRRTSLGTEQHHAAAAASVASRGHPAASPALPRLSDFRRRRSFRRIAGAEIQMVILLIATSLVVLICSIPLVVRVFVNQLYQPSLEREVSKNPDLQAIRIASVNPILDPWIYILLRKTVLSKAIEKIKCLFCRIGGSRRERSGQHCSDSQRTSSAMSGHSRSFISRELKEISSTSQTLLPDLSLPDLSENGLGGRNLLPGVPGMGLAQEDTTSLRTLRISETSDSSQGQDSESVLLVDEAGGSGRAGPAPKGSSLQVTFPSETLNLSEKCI

[9] = molecular target: T7, Human M1 (Homo sapiens, UniProt P11229); assay: biochemical; parameters: CEREP off-target binding panel, per cent inhibition at 10 uM, n = 2
T7 construct: gene CHRM1

[10] = molecular target: T8, Human H1 (Homo sapiens, UniProt P35367); assay: biochemical; parameters: CEREP off-target binding panel, per cent inhibition at 10 uM, n = 2
T8 construct: gene HRH1

[11] = molecular target: T9, Human GR (Homo sapiens, UniProt P04150); assay: biochemical; parameters: CEREP off-target binding panel, per cent inhibition at 10 uM, n = 2
T9 construct: gene NR3C1
T9 sequence (P04150 whole entry): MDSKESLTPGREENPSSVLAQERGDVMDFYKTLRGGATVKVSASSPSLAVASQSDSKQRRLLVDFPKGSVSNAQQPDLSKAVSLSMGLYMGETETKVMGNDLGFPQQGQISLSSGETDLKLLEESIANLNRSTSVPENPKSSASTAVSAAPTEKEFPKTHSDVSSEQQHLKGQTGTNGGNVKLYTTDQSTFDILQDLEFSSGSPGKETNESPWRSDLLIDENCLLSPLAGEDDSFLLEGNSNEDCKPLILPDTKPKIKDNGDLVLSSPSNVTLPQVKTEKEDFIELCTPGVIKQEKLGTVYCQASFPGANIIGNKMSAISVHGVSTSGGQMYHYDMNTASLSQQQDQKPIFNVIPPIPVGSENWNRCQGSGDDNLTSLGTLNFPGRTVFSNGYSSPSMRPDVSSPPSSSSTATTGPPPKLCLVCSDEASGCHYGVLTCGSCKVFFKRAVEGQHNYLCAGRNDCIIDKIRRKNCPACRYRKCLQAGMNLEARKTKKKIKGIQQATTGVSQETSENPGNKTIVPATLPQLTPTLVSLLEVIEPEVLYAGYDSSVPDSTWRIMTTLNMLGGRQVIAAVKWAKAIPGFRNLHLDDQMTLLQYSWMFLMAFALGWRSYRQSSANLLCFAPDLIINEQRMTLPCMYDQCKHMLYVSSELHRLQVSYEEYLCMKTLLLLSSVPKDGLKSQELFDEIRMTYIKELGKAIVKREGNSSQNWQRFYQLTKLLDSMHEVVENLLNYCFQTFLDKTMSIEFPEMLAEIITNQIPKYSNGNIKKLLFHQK

[12] = molecular target: T10, Human 5-HT6 (Homo sapiens, UniProt P50406); assay: biochemical; parameters: CEREP off-target binding panel, per cent inhibition at 10 uM, n = 2
T10 construct: gene HTR6

[13] = molecular target: T11, Human NOP (Homo sapiens, UniProt P41146); assay: biochemical; parameters: CEREP off-target binding panel, per cent inhibition at 10 uM, n = 2
T11 construct: gene OPRL1
T11 sequence (P41146 whole entry): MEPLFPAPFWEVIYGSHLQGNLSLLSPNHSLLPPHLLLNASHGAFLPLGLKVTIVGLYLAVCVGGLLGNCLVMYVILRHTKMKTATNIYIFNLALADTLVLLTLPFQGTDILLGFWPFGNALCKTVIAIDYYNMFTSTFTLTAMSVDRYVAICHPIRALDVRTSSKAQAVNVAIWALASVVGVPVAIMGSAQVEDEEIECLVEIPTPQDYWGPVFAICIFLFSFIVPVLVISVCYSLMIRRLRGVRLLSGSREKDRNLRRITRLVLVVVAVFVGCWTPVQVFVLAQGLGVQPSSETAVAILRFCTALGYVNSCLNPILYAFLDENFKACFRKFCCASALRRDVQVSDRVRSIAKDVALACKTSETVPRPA

[14] = molecular target: T12, Human 5-HT7 (Homo sapiens, UniProt P34969); assay: biochemical; parameters: CEREP off-target binding panel, per cent inhibition at 10 uM, n = 2
T12 construct: gene HTR7

[15] = molecular target: T13, Human A3 (Homo sapiens, UniProt P0DMS8); assay: biochemical; parameters: CEREP off-target binding panel, per cent inhibition at 10 uM, n = 2
T13 construct: gene ADORA3

[16] = molecular target: T14, Human DOP (Homo sapiens, UniProt P41143); assay: biochemical; parameters: CEREP off-target binding panel, per cent inhibition at 10 uM, n = 2
T14 construct: gene OPRD1

[17] = molecular target: T15, Human 5-HT3 (Homo sapiens, UniProt P46098); assay: biochemical; parameters: CEREP off-target binding panel, per cent inhibition at 10 uM, n = 2
T15 construct: gene HTR3A

[18] = molecular target: Human CXCR2 (Homo sapiens, UniProt P25025); assay: biochemical; parameters: CEREP off-target binding panel, per cent inhibition at 10 uM, n = 2
Human CXCR2, sequence (P25025 whole entry): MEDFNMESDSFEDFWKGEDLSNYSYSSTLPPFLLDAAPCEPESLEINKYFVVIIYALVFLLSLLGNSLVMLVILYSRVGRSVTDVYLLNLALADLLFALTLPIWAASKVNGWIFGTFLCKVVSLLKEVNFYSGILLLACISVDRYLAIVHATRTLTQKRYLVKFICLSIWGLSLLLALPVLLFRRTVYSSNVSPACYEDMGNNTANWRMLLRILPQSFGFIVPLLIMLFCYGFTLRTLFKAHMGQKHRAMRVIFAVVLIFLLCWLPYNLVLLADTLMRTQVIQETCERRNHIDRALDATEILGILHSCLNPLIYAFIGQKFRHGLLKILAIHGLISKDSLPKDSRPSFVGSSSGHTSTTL

[19] = molecular target: T16, Human NK2 (Homo sapiens, UniProt P21452); assay: biochemical; parameters: CEREP off-target binding panel, per cent inhibition at 10 uM, n = 2
T16 construct: gene TACR2

[20] = molecular target: T17, Human AT1 (Homo sapiens, UniProt P30556); assay: biochemical; parameters: CEREP off-target binding panel, per cent inhibition at 10 uM, n = 2
T17 construct: gene AGTR1

[21] = molecular target: T18, Human 5-HT1B (Homo sapiens, UniProt P28222); assay: biochemical; parameters: CEREP off-target binding panel, per cent inhibition at 10 uM, n = 2
T18 construct: gene HTR1B

[22] = molecular target: T19, Human H3 (Homo sapiens, UniProt Q9Y5N1); assay: biochemical; parameters: CEREP off-target binding panel, per cent inhibition at 10 uM, n = 2
T19 construct: gene HRH3

[23] = molecular target: T20, Human PXR (Homo sapiens, UniProt O75469); assay: in vitro; parameters: CEREP off-target binding panel, per cent inhibition at 10 uM, n = 2
T20 construct: gene NR1I2

[24] = molecular target: T21, Human NK3 (Homo sapiens, UniProt P29371); assay: biochemical; parameters: CEREP off-target binding panel, per cent inhibition at 10 uM, n = 2
T21 construct: gene TACR3

[25] = molecular target: T22, Human A1 (Homo sapiens, UniProt P30542); assay: biochemical; parameters: CEREP off-target binding panel, per cent inhibition at 10 uM, n = 2
T22 construct: gene ADORA1
T22 sequence (P30542 whole entry): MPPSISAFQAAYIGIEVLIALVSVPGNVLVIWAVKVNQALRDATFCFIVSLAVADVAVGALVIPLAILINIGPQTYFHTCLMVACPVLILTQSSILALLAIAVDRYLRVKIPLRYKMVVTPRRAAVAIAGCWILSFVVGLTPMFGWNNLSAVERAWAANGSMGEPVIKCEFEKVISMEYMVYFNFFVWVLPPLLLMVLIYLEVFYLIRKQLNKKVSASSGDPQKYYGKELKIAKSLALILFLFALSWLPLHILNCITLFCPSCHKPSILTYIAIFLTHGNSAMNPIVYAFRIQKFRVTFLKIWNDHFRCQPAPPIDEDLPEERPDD

[26] = molecular target: T23, Human NTS1 (Homo sapiens, UniProt P30989); assay: biochemical; parameters: CEREP off-target binding panel, per cent inhibition at 10 uM, n = 2
T23 construct: gene NTSR1
T23 sequence (P30989 whole entry): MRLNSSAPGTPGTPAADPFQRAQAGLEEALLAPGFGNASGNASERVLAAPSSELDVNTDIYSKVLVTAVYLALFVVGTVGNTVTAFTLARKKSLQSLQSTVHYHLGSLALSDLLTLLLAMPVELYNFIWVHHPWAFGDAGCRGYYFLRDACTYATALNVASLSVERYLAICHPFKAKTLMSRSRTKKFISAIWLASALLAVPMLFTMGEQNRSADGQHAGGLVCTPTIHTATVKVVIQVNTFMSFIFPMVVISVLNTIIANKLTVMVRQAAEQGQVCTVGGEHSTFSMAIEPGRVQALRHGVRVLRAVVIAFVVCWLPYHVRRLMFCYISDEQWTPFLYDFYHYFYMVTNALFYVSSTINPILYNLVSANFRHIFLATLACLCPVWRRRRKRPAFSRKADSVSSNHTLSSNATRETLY

CYP1A2, sequence (P05177 whole entry): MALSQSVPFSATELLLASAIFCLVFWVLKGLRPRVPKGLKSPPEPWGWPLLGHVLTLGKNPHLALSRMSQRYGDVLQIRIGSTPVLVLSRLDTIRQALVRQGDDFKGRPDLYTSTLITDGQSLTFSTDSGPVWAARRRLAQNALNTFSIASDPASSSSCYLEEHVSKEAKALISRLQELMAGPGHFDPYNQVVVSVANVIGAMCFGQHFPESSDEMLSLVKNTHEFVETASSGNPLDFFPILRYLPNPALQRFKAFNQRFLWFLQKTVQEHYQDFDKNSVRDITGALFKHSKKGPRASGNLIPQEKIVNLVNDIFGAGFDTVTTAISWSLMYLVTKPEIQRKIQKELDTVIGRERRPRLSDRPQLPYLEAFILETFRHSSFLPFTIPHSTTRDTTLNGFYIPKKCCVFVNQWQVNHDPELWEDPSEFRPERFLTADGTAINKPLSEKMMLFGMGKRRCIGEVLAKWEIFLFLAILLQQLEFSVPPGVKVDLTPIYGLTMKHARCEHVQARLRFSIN

Work on `O=C(c1cnc2c(-c3cnco3)cc(C(F)(F)F)cn12)N1C2CCC1COC2` [compound 1, (3-oxa-8-azabicyclo[3.2.1]octan-8-yl)(8-(oxazol-5-yl)-6-(trifluoromethyl)imidazo[1,2-a]pyridin-3-yl)methanone] yielded an IC50 [1] of 6.29 µM, an inhibition at 10 µM [2] of 7.1% and an inhibition at 10 µM [3] of -7.2%. The inhibition at 10 µM [4] was 1.7%, the inhibition at 10 µM [5] was -2% and the inhibition at 10 µM [6] was 2.4%. The inhibition at 10 µM [7] was -34.7%, the inhibition at 10 µM [8] was -22.4% and the inhibition at 10 µM [9] was 3.3%. For the same molecule, the inhibition at 10 µM [10] was -12.9%, the inhibition at 10 µM [11] was -8.6% and the inhibition at 10 µM [12] was -0.7%. It also gave an inhibition at 10 µM [13] of 1.4%, an inhibition at 10 µM [14] of 5.4% and an inhibition at 10 µM [15] of 23.3%. The inhibition at 10 µM [16] was -6.2%, the inhibition at 10 µM [17] was 11% and the inhibition at 10 µM [18] was -11.3%. It also gave an inhibition at 10 µM [19] of -7.9%, an inhibition at 10 µM [20] of -3.7% and an inhibition at 10 µM [21] of -8.4%. For the same molecule, the inhibition at 10 µM [22] was -3.3%, the inhibition at 10 µM [23] was 4.8% and the inhibition at 10 µM [24] was 4.1%. For the same molecule, the inhibition at 10 µM [25] was 32% and the inhibition at 10 µM [26] was -9.7%.

In the case of `O=C(c1cccnc1-c1ccncn1)N1CCC(O)(Cc2ccc(F)cc2)CC1` [compound 2, (4-(4-fluorobenzyl)-4-hydroxypiperidin-1-yl)(2-(pyrimidin-4-yl)pyridin-3-yl)methanone], the IC50 ([1]; read-out: compound 2) is reported as greater than 50 µM, the inhibition at 10 µM [2] is reported as -4.7% and the inhibition at 10 µM [3] is reported as 0%. For the same molecule, the inhibition at 10 µM [4] was 8.3%, the inhibition at 10 µM [5] was 3.1% and the inhibition at 10 µM [6] was -5.3%. For the same molecule, the inhibition at 10 µM [7] was -9.2%, the inhibition at 10 µM [8] was 1.8% and the inhibition at 10 µM [9] was -8.6%. For the same molecule, the inhibition at 10 µM [10] was -13.3%, the inhibition at 10 µM [11] was -0.6% and the inhibition at 10 µM [12] was 0.9%. For the same molecule, the inhibition at 10 µM [13] was 0.6%, the inhibition at 10 µM [14] was 4.2% and the inhibition at 10 µM [15] was 5.4%. The inhibition at 10 µM [16] was -5.8%, the inhibition at 10 µM [17] was 0.8% and the inhibition at 10 µM [18] was -1.5%. The inhibition at 10 µM [19] was -1.4%, the inhibition at 10 µM [20] was -3.2% and the inhibition at 10 µM [21] was -13.3%. It also gave an inhibition at 10 µM [22] of -14.7%, an inhibition at 10 µM [23] of 8.8% and an inhibition at 10 µM [24] of 1.1%. It also gave an inhibition at 10 µM [25] of 12.2% and an inhibition at 10 µM [26] of -12.2%.
